Source: ChEMBL document CHEMBL3044921, “Synthesis, characterization, and SAR studies of new (1H-indol-3-yl)alkyl-3-(1H-indol-3-yl)propanamide derivatives as possible antimicrobial and antitubercular agents” (2013)
Converted amounts (≈) assume the structure as drawn.

Assays:
Streptococcus pyogenes [1] = test: Antibacterial activity against Streptococcus pyogenes assessed as growth inhibition after 16 to 18 hr by serial plate dilution method; format: functional
[2] = tested on: Mycolicibacterium smegmatis; test: Antitubercular activity against Mycobacterium smegmatis ATCC 19420 assessed as growth inhibition at 1 to 100 ug/mL after 7 days by resazurin reduction test; format: functional; settings: ATCC 19420, 168 h
Talaromyces marneffei [3] = test: Antifungal activity against Talaromyces marneffei assessed as growth inhibition at […] to […] ug/ml after 3 to 4 days by agar well diffusion method; format: functional
[4] = tested on: Mycolicibacterium fortuitum; test: Antitubercular activity against Mycobacterium fortuitum ATCC 19542 assessed as growth inhibition at 0.3125 to 5 ug/mL after 7 days by resazurin reduction test; format: functional; settings: ATCC 19542, 168 h
Aspergillus flavus [5] = test: Antifungal activity against Aspergillus flavus NCIM 524 assessed as growth inhibition at […] to […] ug/ml after 3 to 4 days by agar well diffusion method; format: functional
Talaromyces marneffei [6] = test: Antifungal activity against Talaromyces marneffei assessed as growth inhibition after 3 to 4 days by serial plate dilution method; format: functional
Staphylococcus aureus [7] = format: functional, ATCC 25923
Description: Antibacterial activity against Staphylococcus aureus ATCC 25923 assessed as growth inhibition at 1.56 to 25 ug/ml after 3 to 4 days by agar well diffusion method

Aspergillus flavus [8] = test: Antifungal activity against Aspergillus flavus NCIM 524 assessed as growth inhibition after 3 to 4 days by serial plate dilution method; format: functional
Pseudomonas aeruginosa [9] = format: functional, ATCC 27853
Description: Antibacterial activity against Pseudomonas aeruginosa ATCC 27853 assessed as growth inhibition at 1.56 to 25 ug/ml after 3 to 4 days by agar well diffusion method

[10] = tested on: Mycobacterium tuberculosis; test: Antitubercular activity against Mycobacterium tuberculosis H37Rv ATCC 27294 assessed as growth inhibition at 0.3125 to 5 ug/mL after 7 days by resazurin reduction test; format: functional; settings: H37Rv ATCC 27294, 168 h
Pseudomonas aeruginosa [11] = test: Antibacterial activity against Pseudomonas aeruginosa ATCC 27853 assessed as growth inhibition after 16 to 18 hr by serial plate dilution method; format: functional
Candida albicans [12] = test: Antifungal activity against Candida albicans assessed as growth inhibition after 3 to 4 days by serial plate dilution method; format: functional
[13] = tested on: Mycolicibacterium fortuitum; test: Antitubercular activity against Mycobacterium fortuitum ATCC 19542 assessed as growth inhibition at 1 to 100 ug/mL after 7 days by resazurin reduction test; format: functional; settings: ATCC 19542, 168 h
[14] = tested on: Mycobacterium tuberculosis; test: Antitubercular activity against Mycobacterium tuberculosis H37Rv ATCC 27294 assessed as growth inhibition at 1 to 100 ug/mL after 7 days by resazurin reduction test; format: functional; settings: for MIC: Mycobacterium tuberculosis, H37Rv ATCC 27294, 168 h
Aspergillus fumigatus [15] = test: Antifungal activity against Aspergillus fumigatus NCIM 902 assessed as growth inhibition at […] to […] ug/ml after 3 to 4 days by agar well diffusion method; format: functional
[16] = tested on: Trichophyton mentagrophytes; test: Antifungal activity against Trichophyton mentagrophytes assessed as growth inhibition at […] to […] ug/ml after 3 to 4 days by agar well diffusion method; format: functional
Escherichia coli [17] = test: Antibacterial activity against Escherichia coli […] assessed as growth inhibition after 16 to 18 hr by serial plate dilution method; format: functional
Candida albicans [18] = test: Antifungal activity against Candida albicans assessed as growth inhibition at […] to […] ug/ml after 3 to 4 days by agar well diffusion method; format: functional
Staphylococcus aureus [19] = test: Antibacterial activity against Staphylococcus aureus ATCC 25923 assessed as growth inhibition after 16 to 18 hr by serial plate dilution method; format: functional
Escherichia coli [20] = format: functional, ATCC 24922
Description: Antibacterial activity against Escherichia coli ATCC 24922 assessed as growth inhibition at 1.56 to 25 ug/ml after 3 to 4 days by agar well diffusion method

Streptococcus pyogenes [21] = format: functional
Description: Antibacterial activity against Streptococcus pyogenes assessed as growth inhibition at 1.56 to 25 ug/ml after 3 to 4 days by agar well diffusion method

[22] = tested on: Trichophyton mentagrophytes; test: Antifungal activity against Trichophyton mentagrophytes assessed as growth inhibition after 3 to 4 days by serial plate dilution method; format: functional
Klebsiella pneumoniae [23] = test: Antibacterial activity against Klebsiella pneumoniae assessed as growth inhibition after 16 to 18 hr by serial plate dilution method; format: functional
Klebsiella pneumoniae [24] = format: functional
Description: Antibacterial activity against Klebsiella pneumoniae assessed as growth inhibition at 1.56 to 25 ug/ml after 3 to 4 days by agar well diffusion method

[25] = tested on: Mycolicibacterium smegmatis; test: Antitubercular activity against Mycobacterium smegmatis ATCC 19420 assessed as growth inhibition at 0.3125 to 5 ug/mL after 7 days by resazurin reduction test; format: functional; settings: ATCC 19420, 168 h
Aspergillus fumigatus [26] = test: Antifungal activity against Aspergillus fumigatus NCIM 902 assessed as growth inhibition after 3 to 4 days by serial plate dilution method; format: functional

Row | Compound | MIC (Streptococcus pyogenes [1]) | MIC [2] | diameter of the inhibition zone (DIZ) (Talaromyces marneffei [3]) | MIC [4] | diameter of the inhibition zone (DIZ) (Aspergillus flavus [5]) | MIC (Talaromyces marneffei [6]) | diameter of the inhibition zone (DIZ) (Staphylococcus aureus [7]) | MIC (Aspergillus flavus [8]) | diameter of the inhibition zone (DIZ) (Pseudomonas aeruginosa [9]) | MIC [10] | MIC (Pseudomonas aeruginosa [11]) | MIC (Candida albicans [12]) | MIC [13] | growth inhibition (GI) [14] | MIC [14] | diameter of the inhibition zone (DIZ) (Aspergillus fumigatus [15]) | diameter of the inhibition zone (DIZ) [16] | MIC (Escherichia coli [17]) | diameter of the inhibition zone (DIZ) (Candida albicans [18]) | MIC (Staphylococcus aureus [19]) | other results
1 | Cc1[nH]c2ccc(OC(F)(F)F)cc2c1CNC(=O)CCc1c[nH]c2ccc(Cl)cc12 | 6.25 µg/mL (≈ 13.9 µM) | 10 µg/mL (≈ 22.2 µM) | 16 mm | 10 µg/mL (≈ 22.2 µM) | 16 mm | 6.25 µg/mL (≈ 13.9 µM) | 16 mm | 6.25 µg/mL (≈ 13.9 µM) | 16 mm | 0.625 µg/mL (≈ 1.39 µM) | 6.25 µg/mL (≈ 13.9 µM) | 25 µg/mL (≈ 55.6 µM) | 10 µg/mL (≈ 22.2 µM) | 95% | 1 µg/mL (≈ 2.22 µM) | <10 mm | <10 mm | 12.5 µg/mL (≈ 27.8 µM) | <10 mm | 6.25 µg/mL (≈ 13.9 µM) | diameter of the inhibition zone (DIZ) (Escherichia coli [20]): 11 mm; diameter of the inhibition zone (DIZ) (Streptococcus pyogenes [21]): 16 mm; MIC [22]: 25 µg/mL (≈ 55.6 µM); MIC (Klebsiella pneumoniae [23]): 25 µg/mL (≈ 55.6 µM); diameter of the inhibition zone (DIZ) (Klebsiella pneumoniae [24]): <10 mm; MIC [25]: 10 µg/mL (≈ 22.2 µM); MIC (Aspergillus fumigatus [26]): 25 µg/mL (≈ 55.6 µM)
2 | Cn1cc(CCC(=O)NCc2c[nH]c3ccc(OC(F)(F)F)cc23)c2cc(Cl)ccc21 | 6.25 µg/mL (≈ 13.9 µM) | 1 µg/mL (≈ 2.22 µM) | 11 mm | 10 µg/mL (≈ 22.2 µM) | 16 mm | 12.5 µg/mL (≈ 27.8 µM) | 16 mm | 6.25 µg/mL (≈ 13.9 µM) | 16 mm | 0.625 µg/mL (≈ 1.39 µM) | 6.25 µg/mL (≈ 13.9 µM) | 12.5 µg/mL (≈ 27.8 µM) | 10 µg/mL (≈ 22.2 µM) | 95% | 1 µg/mL (≈ 2.22 µM) | 16 mm | <10 mm | 6.25 µg/mL (≈ 13.9 µM) | 11 mm | 6.25 µg/mL (≈ 13.9 µM) | diameter of the inhibition zone (DIZ) (Escherichia coli [20]): 16 mm; diameter of the inhibition zone (DIZ) (Streptococcus pyogenes [21]): 16 mm; MIC [22]: 25 µg/mL (≈ 55.6 µM); MIC (Klebsiella pneumoniae [23]): 6.25 µg/mL (≈ 13.9 µM); diameter of the inhibition zone (DIZ) (Klebsiella pneumoniae [24]): 16 mm; MIC [25]: 1.25 µg/mL (≈ 2.78 µM); MIC (Aspergillus fumigatus [26]): 6.25 µg/mL (≈ 13.9 µM)
3 | Cn1cc(CCC(=O)NCc2cn(C)c3ccc(Cl)cc23)c2cc(Cl)ccc21 | 25 µg/mL (≈ 60.3 µM) | > 100 µg/mL | 11 mm | 10 µg/mL (≈ 24.1 µM) | <10 mm | 12.5 µg/mL (≈ 30.2 µM) | <10 mm | 25 µg/mL (≈ 60.3 µM) | 11 mm | 10 µg/mL (≈ 24.1 µM) | 12.5 µg/mL (≈ 30.2 µM) | 25 µg/mL (≈ 60.3 µM) | 10 µg/mL (≈ 24.1 µM) | <90% | > 100 µg/mL | <10 mm | <10 mm | 12.5 µg/mL (≈ 30.2 µM) | <10 mm | 25 µg/mL (≈ 60.3 µM) | diameter of the inhibition zone (DIZ) (Escherichia coli [20]): 11 mm; diameter of the inhibition zone (DIZ) (Streptococcus pyogenes [21]): <10 mm; MIC [22]: 25 µg/mL (≈ 60.3 µM); MIC (Klebsiella pneumoniae [23]): 12.5 µg/mL (≈ 30.2 µM); diameter of the inhibition zone (DIZ) (Klebsiella pneumoniae [24]): 11 mm; MIC [25]: 10 µg/mL (≈ 24.1 µM); MIC (Aspergillus fumigatus [26]): 25 µg/mL (≈ 60.3 µM)
4 | O=C(CCc1c[nH]c2ccc(Cl)cc12)NCc1c[nH]c2ccc(Cl)cc12 | 12.5 µg/mL (≈ 32.4 µM) | 1 µg/mL (≈ 2.59 µM) | <10 mm | 10 µg/mL (≈ 25.9 µM) | <10 mm | 25 µg/mL (≈ 64.7 µM) | 16 mm | 25 µg/mL (≈ 64.7 µM) | 16 mm | 0.625 µg/mL (≈ 1.62 µM) | 6.25 µg/mL (≈ 16.2 µM) | 25 µg/mL (≈ 64.7 µM) | 10 µg/mL (≈ 25.9 µM) | 90% | 1 µg/mL (≈ 2.59 µM) | 16 mm | 16 mm | 6.25 µg/mL (≈ 16.2 µM) | <10 mm | 6.25 µg/mL (≈ 16.2 µM) | diameter of the inhibition zone (DIZ) (Escherichia coli [20]): 16 mm; diameter of the inhibition zone (DIZ) (Streptococcus pyogenes [21]): 11 mm; MIC [22]: 6.25 µg/mL (≈ 16.2 µM); MIC (Klebsiella pneumoniae [23]): 6.25 µg/mL (≈ 16.2 µM); diameter of the inhibition zone (DIZ) (Klebsiella pneumoniae [24]): 16 mm; MIC [25]: 1.25 µg/mL (≈ 3.24 µM); MIC (Aspergillus fumigatus [26]): 6.25 µg/mL (≈ 16.2 µM)
